Test results reported in patent publication US10975087B2, “Solid forms of tetrahydropyranyl amino-pyrrolopyrimidinone compounds” (ArQule, Inc., priority 2018, dated 2021).
In brackets after ≈: the same amount, converted by molar mass. Like-named read-outs stand apart in the source and are kept apart here.

Tests used:
Type in all cases: physicochemical
[1] = Gravimetric vapor sorption (GVS); conditions: for Post-GVS analysis (form): after exposure to elevated humidity; for XRPD post GVS: cell wraps: Remained | unchanged; for GVS (hygroscopicity): summary Table 11
Description: Approximately 10-20 mg of sample was placed into a mesh vapor sorption balance pan and loaded into an IGASorp Moisture Sorption Analyzer balance by Hiden Analytical. The sample was subjected to a ramping profile from 40-90% relative humidity (RH) at 10% increments, maintaining the sample at each step until a stable weight had been achieved (98% step completion). After completion of the sorption cycle, the sample was dried using the same procedure to 0% RH, and finally taken back to the starting point of 40% RH. Two cycles were performed. The weight change during the sorption/desorption cycles were plotted, allowing for the hygroscopic nature of the sample to be determined.

[2] = 7 day stability testing, open vials at 40° C./75% RH, ambient and 80° C.; conditions: for Purity after 1 week (%) / area % purity and form changes after 1 week: open vials; for T = 0 purity (%): T = 0, before storage; for area % purity and form changes after 1 week: ambient, 40° C./75% RH and 80° C.; for Stability testing: cell wraps: No drop in purity or change in form
Acetone solubility = conditions: for Form: XRPD of damp solid after slurrying in Acetone, *Small amount of material analyzed; for solid form after slurrying in acetone (XRPD) / solubility at 24 h / Solubility: acetone; for solubility at 24 h: organic solvent or mixture, thermodynamic from solid; for Acetone solubility: residual solid: form of residual solid, amorphous input: Form 2 residual solid with additional peaks
Description: (§1) Aqueous and acetone solubility was carried out using 3-10 mg of material, depending on availability, and slurrying in 150-200 μL of acetone or 300 μL of deionized water. The samples were agitated at ambient temperature then filtered by centrifugation (0.22 μm nylon filter) after ca. 24 hours and the solids analyzed by XRPD as damp solids. The filtrates were analyzed by HPLC for concentration determination. The water solubility was too low for detection using the current analytical method.

Aqueous solubility = conditions: for Solubility (mg/mL): Water; for Form: XRPD of damp solid after slurrying in Water, AXRPD: Amorphous by XRPD, but limited material for analysis; for XRPD post aqueous solubility: amorphous: Form 1 from solubility screen, Form 8: Amorphous, limited material
Description: as §1

Competitive slurrying = conditions: for Form (competitive slurrying result) / form observed after competitive slurrying (XRPD): ca. 48 hours; for Form (competitive slurrying result): XRPD; for form observed after competitive slurrying (XRPD): ambient and 50° C., acetone, ethanol, acetonitrile
Description: Approximately 5 mg of each form (Form 1 and Form 4, Form 1 and Form 8, and Form 4 and Form 8) was weighed and agitated at ambient and 50° C. in minimal acetone, ethanol, diisopropyl ether (DIPE) and acetonitrile. Approximately 8 drops of each solvent was added and the samples were then agitated for ca. 48 hours, before being analyzed by XRPD. Table 9 details the conditions.

[3] = Long term stability testing at 25° C./60% RH
Description: Long term stability testing was carried out for Form 1 at 25° C./60% RH. […] The water content was measured by KF analysis.

[4] = Accelerated stability testing at 40° C./75% RH for 6 months
Description: Accelerated stability testing was carried out for Form 1 at 40° C./75% RH for 6 months. […] The water content was measured by KF analysis.

[5] = Thermodynamic solubility pH measurements; conditions: for Solubility (mg/mL) / Solubility: 48 hours
Description: After 2 hours at 25° C., the pH of each slurry was measured and the pH was adjusted, where required. After 24 hours at 25° C., the pH of each slurry was measured and the pH was adjusted, where required. After 48 hours at 25° C., the slurries were separated by centrifugation. The solids were analyzed by XRPD, while the pH of the separated liquors were also measured.

[6] = ambient temperature, ca. 24 hours
[7] = deionized water, ambient temperature, ca. 24 hours
[8] = summary Table 11, HPLC of filtrate

O=C(c1ccc(Oc2ccccc2)cc1Cl)c1c[nH]c2ncnc(N[C@@H]3CC[C@@H](CO)OC3)c12 [Form 8, (2-chloro-4-phenoxyphenyl)(4-(((3R,6S)-6-(hydroxymethyl)tetrahydro-2H-pyran-3-yl)amino)-7H-pyrrolo[2,3-d]pyrimidin-5-yl)methanone]
hygroscopic nature by GVS [1]: non-hygroscopic
Post-GVS analysis (form) [1]: remain Form 8
uptake by GVS, first cycle ([1]; at 90% RH, first cycle): < 0.3%
uptake by GVS, second cycle ([1]; at 90% RH, second cycle): 0.8%
XRPD post GVS [1]: Remained
GVS (hygroscopicity) [1]: 0.8% uptake
Purity after 1 week (%) ([2]; 40° C./75% RH): 99.0%
Purity after 1 week (%) ([2]; 80° C.): 99.0%
Purity after 1 week (%) ([2]; Ambient): 99.0%
T = 0 purity (%) [2]: 99.0%
area % purity and form changes after 1 week [2]: no decrease in area % purity or form changes
Form (Acetone solubility): Form 2*
solid form after slurrying in acetone (XRPD) (Acetone solubility; [6]): conversion to Form 2
solubility at 24 h (Acetone solubility; Acetone, ambient temperature, ca. 24 hours, read-out: Solubility): 11.5 mg/mL (≈ 24 mM)
Acetone solubility: residual solid (Acetone solubility): (Form 2 residual
Acetone solubility (Acetone solubility; summary Table 11): 11.5 mg/mL
Solubility (mg/mL) (Aqueous solubility; [6]): API not detected
Form (Aqueous solubility): AXRPD
XRPD post aqueous solubility (Aqueous solubility): Amorphous,
aqueous solubility (Aqueous solubility; [7]): not soluble
aqueous solubility (Aqueous solubility; [8]): API not detected

O=C(c1ccc(Oc2ccccc2)cc1Cl)c1c[nH]c2ncnc(N[C@@H]3CC[C@@H](CO)OC3)c12 [Form 1, (2-chloro-4-phenoxyphenyl)(4-(((3R,6S)-6-(hydroxymethyl)tetrahydro-2H-pyran-3-yl)amino)-7H-pyrrolo[2,3-d]pyrimidin-5-yl)methanone]
hygroscopic nature by GVS [1]: non-hygroscopic
Post-GVS analysis (form) [1]: remain Form 1
uptake by GVS ([1]; at 90% RH): < 0.2%
XRPD post GVS [1]: Remained
GVS (hygroscopicity) [1]: <0.2% uptake
relative stability of the form (Competitive slurrying; under the conditions assessed): thermodynamically more stable form
area % purity and form changes, long term storage [3]: no decrease in area % purity or form changes
Chemical Purity (% AUC) ([3]; 0 months): 98.9 % AUC
Crystallinity (XRPD) ([3]; 0 months): Form 1
Water Content (KF) (%) ([3]; 0 months): 0.16%
Chemical Purity (% AUC) ([3]; 1 month): 98.8 % AUC
Water Content (KF) (%) ([3]; 1 month): 0.28%
Chemical Purity (% AUC) ([3]; 3 months): 98.8 % AUC
Water Content (KF) (%) ([3]; 3 months): 0.41%
Chemical Purity (% AUC) ([3]; 6 months): 98.9 % AUC
Crystallinity (XRPD) ([3]; 6 months): Form 1
Water Content (KF) (%) ([3]; 6 months): 0.47%
Chemical Purity (% AUC) ([3]; 9 months): 98.9 % AUC
Water Content (KF) (%) ([3]; 9 months): 0.29%
Chemical Purity (% AUC) ([3]; 12 months): 98.8 % AUC
Crystallinity (XRPD) ([3]; 12 months): Form 1
Water Content (KF) (%) ([3]; 12 months): 0.46%
Chemical Purity (% AUC) ([3]; 18 months): 99.0 % AUC
Water Content (KF) (%) ([3]; 18 months): 0.49%
Chemical Purity (% AUC) ([3]; 24 months): 98.9 % AUC
Crystallinity (XRPD) ([3]; 24 months): Form 1
Water Content (KF) (%) ([3]; 24 months): 0.37%
Purity after 1 week (%) ([2]; 40° C./75% RH): 99.4%
Purity after 1 week (%) ([2]; 80° C.): 99.4%
Purity after 1 week (%) ([2]; Ambient): 99.3%
T = 0 purity (%) [2]: 99.3%
area % purity and form changes after 1 week [2]: no decrease in area % purity or form changes
Stability testing [2]: No drop in purity
Form (Acetone solubility): Form 2*
Solubility (Acetone solubility; [6]): 12.3 mg/mL (≈ 25.7 mM)
solid form after slurrying in acetone (XRPD) (Acetone solubility; [6]): conversion to Form 2
solubility at 24 h (Acetone solubility; summary Table 11, read-out: Acetone solubility): 12.3 mg/mL (≈ 25.7 mM)
Acetone solubility: residual solid (Acetone solubility): (Form 2 residual
Chemical Purity (% Area) ([4]; 0 months): 98.9 % Area
Crystallinity (XRPD) ([4]; 0 months): Form 1
Water Content (KF) (%) ([4]; 0 months): 0.16%
Chemical Purity (% Area) ([4]; 1 month): 98.8 % Area
Water Content (KF) (%) ([4]; 1 month): 0.36%
Chemical Purity (% Area) ([4]; 3 months): 98.8 % Area
Water Content (KF) (%) ([4]; 3 months): 0.53%
Chemical Purity (% Area) ([4]; 6 months): 98.9 % Area
Crystallinity (XRPD) ([4]; 6 months): Form 1
Water Content (KF) (%) ([4]; 6 months): 0.57%
area % purity and form changes, accelerated storage ([4]; 6 months): no decrease in area % purity or form changes
Solubility (mg/mL) (Aqueous solubility; [6]): API not detected
Form (Aqueous solubility): Form 1
XRPD post aqueous solubility (Aqueous solubility): Form 1
aqueous solubility (Aqueous solubility; [7]): not soluble
aqueous solubility (Aqueous solubility; [8]): API not detected

O=C(c1ccc(Oc2ccccc2)cc1Cl)c1c[nH]c2ncnc(N[C@@H]3CC[C@@H](CO)OC3)c12.O=S(=O)(O)CCS(=O)(=O)O [Edisylate Pattern 1]
pH - 2 Hours at 25° C. ([5]; Input Solvent Water): 2.32
pH - 24 Hours at 25° C. ([5]; Input Solvent Water): 2.18
pH - 48 Hours at 25° C. ([5]; Input Solvent Water): 2.37
Solubility (mg/mL) ([5]; Input Solvent Water, 25° C.): <LOD
pH - 2 Hours at 25° C. ([5]; Input Solvent pH 1): 0.17
pH - 24 Hours at 25° C. ([5]; Input Solvent pH 1): 0.70
pH - 48 Hours at 25° C. ([5]; Input Solvent pH 1): 1.11
Solubility ([5]; Input Solvent pH 1, 25° C.): 0.7 mg/mL
pH - 2 Hours at 25° C. ([5]; Input Solvent pH 4.5): 4.40
pH - 24 Hours at 25° C. ([5]; Input Solvent pH 4.5): 4.29
pH - 48 Hours at 25° C. ([5]; Input Solvent pH 4.5): 4.22
Solubility (mg/mL) ([5]; Input Solvent pH 4.5, 25° C.): <LOD
pH - 2 Hours at 25° C. ([5]; Input Solvent pH 6.5): 6.44
pH - 24 Hours at 25° C. ([5]; Input Solvent pH 6.5): 6.03
pH - 48 Hours at 25° C. ([5]; Input Solvent pH 6.5): 5.68
Solubility ([5]; Input Solvent pH 6.5, 25° C.): <0.1 mg/mL

O=C(c1ccc(Oc2ccccc2)cc1Cl)c1c[nH]c2ncnc(N[C@@H]3CC[C@@H](CO)OC3)c12 [1 and 4]
Form (competitive slurrying result) (Competitive slurrying; DIPE, 50° C.): Form 1
Form (competitive slurrying result) (Competitive slurrying; Ethanol, 50° C.): Form 1
Form (competitive slurrying result) (Competitive slurrying; Ethanol, Ambient): Form 1

O=C(c1ccc(Oc2ccccc2)cc1Cl)c1c[nH]c2ncnc(N[C@@H]3CC[C@@H](CO)OC3)c12 [Form 4, (2-chloro-4-phenoxyphenyl)(4-(((3R,6S)-6-(hydroxymethyl)tetrahydro-2H-pyran-3-yl)amino)-7H-pyrrolo[2,3-d]pyrimidin-5-yl)methanone]
hygroscopic nature by GVS [1]: non-hygroscopic
Post-GVS analysis (form) [1]: remain Form 4
uptake by GVS ([1]; at 90% RH): 0.4%
XRPD post GVS [1]: Remained
GVS (hygroscopicity) [1]: 0.4% uptake
Purity after 1 week (%) ([2]; 40° C./75% RH): 98.9%
Purity after 1 week (%) ([2]; 80° C.): 98.9%
Purity after 1 week (%) ([2]; Ambient): 98.9%
T = 0 purity (%) [2]: 98.8%
area % purity and form changes after 1 week [2]: no decrease in area % purity or form changes
Stability testing [2]: No drop in purity
Form (Acetone solubility): Form 1
Solubility (Acetone solubility; [6]): 15.1 mg/mL (≈ 31.5 mM)
solid form after slurrying in acetone (XRPD) (Acetone solubility; [6]): converted to the Form 1 polymorph
Acetone solubility: residual solid (Acetone solubility): (Form 1 residual
Acetone solubility (Acetone solubility; summary Table 11): 15.1 mg/mL
Solubility (mg/mL) (Aqueous solubility; [6]): API not detected
Form (Aqueous solubility): Form 4
XRPD post aqueous solubility (Aqueous solubility): Form 4
aqueous solubility (Aqueous solubility; [7]): not soluble
aqueous solubility (Aqueous solubility; [8]): API not detected

O=C(c1ccc(Oc2ccccc2)cc1Cl)c1c[nH]c2ncnc(N[C@@H]3CC[C@@H](CO)OC3)c12 [Form 11, (2-chloro-4-phenoxyphenyl)(4-(((3R,6S)-6-(hydroxymethyl)tetrahydro-2H-pyran-3-yl)amino)-7H-pyrrolo[2,3-d]pyrimidin-5-yl)methanone]
hygroscopic nature by GVS [1]: non-hygroscopic

O=C(c1ccc(Oc2ccccc2)cc1Cl)c1c[nH]c2ncnc(N[C@@H]3CC[C@@H](CO)OC3)c12 [Form 1 and Form 4]
form observed after competitive slurrying (XRPD) (Competitive slurrying; DIPE): Form 1 was the dominant form

O=C(c1ccc(Oc2ccccc2)cc1Cl)c1c[nH]c2ncnc(N[C@@H]3CC[C@@H](CO)OC3)c12 [4 and 8]
Form (competitive slurrying result) (Competitive slurrying; DIPE, 50° C.): Form 4
Form (competitive slurrying result) (Competitive slurrying; Ethanol, 50° C.): Form 1
Form (competitive slurrying result) (Competitive slurrying; Ethanol, Ambient): Form 1

O=C(c1ccc(Oc2ccccc2)cc1Cl)c1c[nH]c2ncnc(N[C@@H]3CC[C@@H](CO)OC3)c12 [Form 1 and Form 8]
form observed after competitive slurrying (XRPD) (Competitive slurrying; DIPE): Form 1 was the dominant form

O=C(c1ccc(Oc2ccccc2)cc1Cl)c1c[nH]c2ncnc(N[C@@H]3CC[C@@H](CO)OC3)c12 [1 and 8]
Form (competitive slurrying result) (Competitive slurrying; DIPE, 50° C.): Form 1
Form (competitive slurrying result) (Competitive slurrying; Ethanol, 50° C.): Form 1
Form (competitive slurrying result) (Competitive slurrying; Ethanol, Ambient): Form 1

O=C(c1ccc(Oc2ccccc2)cc1Cl)c1c[nH]c2ncnc(N[C@@H]3CC[C@@H](CO)OC3)c12 [Form 4 and Form 8]
form observed after competitive slurrying (XRPD) (Competitive slurrying; DIPE): Form 1 and Form 2 mixtures, pure Form 1, pure Form 4 and pure Form 2
